Two molecules from patent EP1043979B1, “COMPOSITIONS FOR THE TRANSDERMAL AND DERMAL ADMINISTRATION OF BIOLOGICALLY ACTIVE AGENTS” (PULITZER ITALIANA S.r.l., priority 1997, dated 1999) can be followed below.

The data set can be described thus: In vitro transdermal flux of nitroglycerin from TTS patches, Franz diffusion cells, HPLC of receiving medium. The class given is in vitro ADME, human. An excerpt: The transdermal delivery devices employed in this example and in the following ones were produced according to the following procedure. A matrix layer containing the active substance, the adhesive and, when present, the permeation enhancer and the absorption assistant was obtained by uniformly spreading a solution of the components, with the proper concentration, viscosity and quantitative composition, on the silanised or fluorinated surface of a polyester protective layer. After evaporating the solvent at 70-80°C for 15-20 min. a final layer of a homogeneous thickness was obtained. weighing about 10 mg/cm^2 and having the desired composition. The composition had been preliminarily fixed taking into account the amount of solvent to be removed. During the above operation the adhesive employed underwent the required cross-linking reaction. […]
On the transdermal devices thus produced in vitro release tests were carried out, employing methods well known to this aim (Merrit e. Cooper, J. Controlled Release, 1984, 1, 161), that have been further developed more recently (Reifenrath et al., J. Pharm. Sci., 80, 1991, 526). […] The tested patches were applied to the exposed side of the skin, and the transdermal flux was measured by analysing (by HPLC) the receiving medium. […]

Consider `CC(=O)NCCO` [N-(2-hydroxyethyl)acetamide], for which the activity as enhancer result (N-(2-hydroxyethyl)acetamide alone, 3-7% in nitroglycerin TTS (Table 2)) is “does not possess any significant activity as enhancer”. As for sorbitan monooleate, the transdermal permeation result is on record as “relative reduction of the transdermal permeation”.
